This passage reports melting point results from patent publication US6362180B1, “Imidazopyridines for the treatment of neurological disorders” (Bristol-Myers Squibb Pharma Company, priority 1997, dated 2002).

With `CCCCC(CC)n1c(CC)nc2c(-c3c(C)cc(C)cc3C)ncnc21` (stereo not drawn) [Example 2, 8-Ethyl-9-(1-ethylpentyl)-6-(2,4,6-trimethylphenyl)purine], the melting point (usually the temperature, or range, at which the solid turns liquid) fell in the range of 99 to 100 °C.
`CCc1nc2c(-c3ccc(OC)cc3Cl)ncnc2n1C(C1CC1)C1CC1` [Example 831, 6-(2-Chloro-4-methoxyphenyl)-9-dicyclopropylmethyl-8-ethylpurine] came in with a melting point of 139 to 140 °C.
Under `CCc1nc2c(-c3cc4c(cc3C)OCC4)ncnc2n1C(C1CC1)C1CC1` [Example 5001, 9-Dicyclopropylmethyl-8-ethyl-6-(6-methyl-2,3-dihydrobenzofuran-5-yl)purine] stands 147 to 148 °C; under `CCc1nc2c(-c3cc4ccoc4cc3C)ncnc2n1C(C1CC1)C1CC1` [Example 5201, 9-dicyclopropylmethyl-8-ethyl-6-(6-methylbenzofuran-5-yl)purine], 139 to 141 °C.
Under `CCc1nc2c(-c3cc4cc(Br)oc4cc3C)ncnc2n1C(C1CC1)C1CC1` [Example 5231, 6-(2-bromo-6-methylbenzofuran-5-yl)-9-dicyclopropylmethyl-8-ethylpurine] stands 177 to 178 °C.
The compound `CCc1nc2c(-c3cc4c(c(Br)c3C)OCC4)ncnc2n1C(C1CC1)C1CC1` [Example 5232, 6-(7-bromo-6-methyl-2,3-dihydrobenzofuran-5-yl)-9-dicyclopropylmethyl-8-ethylpurine] yielded a melting point of 179 to 180 °C.
